Here are results for one molecule from PMC5259778, “Candidate pheromone receptors of codling moth Cydia pomonella respond to pheromones and kairomones” (Scientific Reports, 2017).

In this assay the test system is CpomOrco + OR complexes. Description: Calcium imaging of HEK293T cells expressing heteromeric CpomOrco + OR complexes. The assay is classed as cell-based, Cydia pomonella. Conditions: heteromeric complexes; peak amplitudes normalized to response at 1000 μM agonist; read-out: [A]1/2 half-effective concentration of agonist, calcium response. Here is the method:
HEK293T cells were grown in HEK cell media [Dulbecco’s modified Eagle’s medium containing 10% fetal bovine serum (MP Biomedicals, Solon, OH, USA), 2.0 mM L-glutamine, and 100 μg/mL Penicillin/Streptomycin (Invitrogen)] at 37 °C and 5% CO2. To test transient expression of CpomORs for calcium imaging or patch-clamp recording experiments, 35-mm petri dishes containing semi-confluent HEK293T cells were transiently transfected. To transfect cells with CpomOrco, we used 1.0 μg of pcDNA5/TO/CpomOrco DNA. In order to promote expression of the OR[51], we used double aliquots for pcDNA5/TO/CpomOR DNAs (2.0 μg), combined with 1.0 μg of pcDNA5/TO/CpomOrco for co-transfections (CpomOrco + ORs). To report expression for calcium imaging experiments, 1.0 μg of a separate plasmid DNA [pEBFP2-Nuc, a gift from Robert Campbell (Addgene plasmid # 14893[52])] carrying the coding sequence for a blue fluorescent protein (BFP) was used. In patch-clamp recordings, 1.0 μg of a separate plasmid DNA (pXOOM, Clontech) carrying the coding sequence for a green fluorescent protein (GFP) was used to report expression. In order to report candidate OR-expressing cells, expression of both fluorescent reporter genes was under the regulation of the same promoter for CpomOR genes (CMV). Transfection DNAs were dissolved in 100 μL sterile DMEM, mixed with 3.0 μL Calfectin (SignaGen, Rockville, MD, USA) following the recommended protocol. To estimate transfection efficiency, a parallel transfection was conducted using the positive control vector pcDNA5/TO/LACZ (Invitrogen) and staining with 0.1% XGal[53]. […]
Fluorescence imaging was performed using Imaging Workbench 6 software (INDEC BioSystems, Santa Clara, CA, USA). Each cell was assigned a region of interest (ROI) and changes in fluorescence intensity within each ROI were measured and expressed as the fractional change in fluorescence intensity (dF) or in some cases as dF/F0 where F0 is the basal fluorescence level before agonist application. […] Continuous traces of multiple responses were compensated for slow drift of the baseline fluorescence when necessary. […]

pEC50: −log10 of the molar value.

For `CCn1c(SCC(=O)Nc2ccc(C(C)C)cc2)nnc1-c1ccncc1` [VUAA3, acetamide,2-[[4-ethyl-5-(4-pyridinyl)-4H-1,2,4-triazol-3-yl]thio]-N-[4-(1-methylethyl)phenyl]-], the pEC50 is about 3.85.
